{"source": "ChEMBL document CHEMBL1122888", "about": "“22-Hydroxycholesterol derivatives as HMG CoA reductase suppressors and serum cholesterol lowering agents” (1985)", "key": {"[1]": {"species_on_record": "Rattus norvegicus", "experiment": "Minimum effective dose necessary to produce >=25% decrease of elevated liver HMG CoA reductage levels", "format": "functional", "details": "read-out: MED"}, "[2]": {"tested_on": "HMG-CoA reductase (Rattus norvegicus)", "experiment": "Evaluated for the percent suppression of elevated liver HMG-CoA reductase in Diazoesterol treated rats"}, "[3]": {"target": "T1, 3-hydroxy-3-methylglutaryl-coenzyme A reductase (Homo sapiens) (UniProt P04035)", "T1 sequence (whole entry)": "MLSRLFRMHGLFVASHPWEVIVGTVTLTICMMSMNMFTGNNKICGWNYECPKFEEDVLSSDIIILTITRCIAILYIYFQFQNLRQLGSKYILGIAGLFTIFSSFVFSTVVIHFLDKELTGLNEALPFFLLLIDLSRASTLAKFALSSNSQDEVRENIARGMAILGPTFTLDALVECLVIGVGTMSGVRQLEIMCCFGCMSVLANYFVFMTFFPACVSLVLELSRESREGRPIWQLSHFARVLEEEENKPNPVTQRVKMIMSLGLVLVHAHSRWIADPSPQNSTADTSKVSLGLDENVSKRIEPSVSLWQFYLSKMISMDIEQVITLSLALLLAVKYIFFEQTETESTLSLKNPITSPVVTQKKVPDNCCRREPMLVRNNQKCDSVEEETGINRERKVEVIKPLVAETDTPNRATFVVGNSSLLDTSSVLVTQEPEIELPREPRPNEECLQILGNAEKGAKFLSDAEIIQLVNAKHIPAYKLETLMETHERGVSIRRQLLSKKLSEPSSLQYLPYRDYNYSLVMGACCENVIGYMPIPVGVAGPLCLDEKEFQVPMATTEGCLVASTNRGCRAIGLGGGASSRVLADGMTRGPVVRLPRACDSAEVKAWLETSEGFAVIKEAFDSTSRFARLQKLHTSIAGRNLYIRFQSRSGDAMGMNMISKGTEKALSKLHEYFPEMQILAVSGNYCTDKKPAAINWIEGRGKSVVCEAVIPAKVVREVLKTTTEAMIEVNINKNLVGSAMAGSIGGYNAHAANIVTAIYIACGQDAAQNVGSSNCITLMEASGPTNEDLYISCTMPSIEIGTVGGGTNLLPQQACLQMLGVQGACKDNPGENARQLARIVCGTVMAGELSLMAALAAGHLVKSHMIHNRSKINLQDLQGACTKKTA", "experiment": "Evaluated in human fibroblast tissue culture assays for suppression of HMG-CoA reductase at concentration of 1 ug/mL."}, "[4]": {"tested_on": "Monkey", "experiment": "Evaluated for serum lipoprotein HDL levels in the 14 day treated rhesus monkey at dose (10 mg/kg/day, ig) over a 2-week period", "format": "functional, Cercopithecidae", "parameters": "reference not given here"}, "[5]": {"target": "T1, 3-hydroxy-3-methylglutaryl-coenzyme A reductase (Homo sapiens)", "experiment": "Evaluated for serum cholesterol levels in the 14 day treated rhesus monkeys at dose (10 mg/kg/day, ig) over a 2-week period", "format": "functional, organism-based", "details": "Cercopithecidae; target entry is the homologue from another species"}, "[6]": {"tested_on": "Monkey", "experiment": "Evaluated for serum lipoprotein LDL levels in the 14 day treated monkey at dose (10 mg/kg/day, ig) over a 2-week period", "format": "functional, Cercopithecidae", "parameters": "reference not given here"}, "[7]": {"tested_on": "Monkey", "experiment": "Evaluated for serum cholesterol VLDL levels in the 14 day treated monkey at dose (10 mg/kg/day, ig) over a 2-week period", "format": "functional, Cercopithecidae"}, "[8]": {"target": "T1, 3-hydroxy-3-methylglutaryl-coenzyme A reductase (Homo sapiens)", "experiment": "Evaluated for serum cholesterol levels in the 14 day treated primate (male rhesus monkeys) at dose (10 mg/kg/day, ig) over a 2-week period", "format": "functional, organism-based", "details": "Cercopithecidae; target entry is the homologue from another species"}, "[9]": {"species_on_record": "Rattus norvegicus", "experiment": "Minimum effective dose necessary to produce >=25% decrease of elevated liver HMG CoA reductage levels in diazasterol treated rats", "format": "functional", "details": "read-out: MED"}}, "data": [{"compound": "C[C@H](C(O)CCC1CC1)C1CCC2C3CC=C4CC(O)CCC4(C)C3CCC21C", "note": "(stereo partly drawn)", "values": [{"measurement": "minimal effective dose", "setting": "[1]", "value": 0.5, "unit": "mg/kg"}, {"measurement": "Suppression", "setting": "[2]", "value": 30, "unit": "%"}, {"measurement": "inhibition", "setting": "[3]", "value": "> 95", "unit": "%"}, {"measurement": "Lipoprotein level", "setting": "[4]", "value": 68, "unit": "%"}, {"measurement": "cholesterol level", "setting": "[5]", "value": 179, "unit": "mg/dL"}, {"measurement": "Lipoprotein level", "setting": "[6]", "value": 23, "unit": "%"}, {"measurement": "cholesterol level", "setting": "[7]", "value": 4, "unit": "mg/dL"}]}, {"compound": "C[C@H](C(O)CCC(C)(C)C)C1CCC2C3CC=C4CC(O)CCC4(C)C3CCC21C", "note": "(stereo partly drawn)", "values": [{"measurement": "Suppression", "setting": "[2]", "value": 39, "unit": "%"}, {"measurement": "inhibition", "setting": "[3]", "value": 95, "unit": "%"}, {"measurement": "cholesterol level", "setting": "[8]", "value": 167, "unit": "mg/dL"}, {"measurement": "minimal effective dose", "setting": "[9]", "value": 0.5, "unit": "mg/kg"}, {"measurement": "Lipoprotein level", "setting": "[4]", "value": 66, "unit": "%"}, {"measurement": "Lipoprotein level", "setting": "[6]", "value": 25, "unit": "%"}, {"measurement": "cholesterol level", "setting": "[7]", "value": 6, "unit": "mg/dL"}]}, {"compound": "C[C@H](C(O)CCC(C)(C)F)C1CCC2C3CC=C4CC(O)CCC4(C)C3CCC21C", "note": "(stereo partly drawn)", "values": [{"measurement": "minimal effective dose", "setting": "[1]", "value": 0.5, "unit": "mg/kg"}, {"measurement": "Suppression", "setting": "[2]", "value": 26, "unit": "%"}, {"measurement": "inhibition", "setting": "[3]", "value": "> 95", "unit": "%"}, {"measurement": "Lipoprotein level", "setting": "[4]", "value": 61, "unit": "%"}, {"measurement": "cholesterol level", "setting": "[5]", "value": 150, "unit": "mg/dL"}, {"measurement": "Lipoprotein level", "setting": "[6]", "value": 25, "unit": "%"}, {"measurement": "cholesterol level", "setting": "[7]", "value": 8, "unit": "mg/dL"}]}, {"compound": "C[C@H](C(O)CCC(C)(C)Cl)C1CCC2C3CC=C4CC(O)CCC4(C)C3CCC21C", "note": "(stereo partly drawn)", "values": [{"measurement": "minimal effective dose", "setting": "[1]", "value": 0.2, "unit": "mg/kg"}, {"measurement": "Suppression", "setting": "[2]", "value": 28, "unit": "%"}, {"measurement": "Lipoprotein level", "setting": "[4]", "value": 70, "unit": "%"}, {"measurement": "cholesterol level", "setting": "[5]", "value": 168, "unit": "mg/dL"}, {"measurement": "Lipoprotein level", "setting": "[6]", "value": 22, "unit": "%"}, {"measurement": "cholesterol level", "setting": "[7]", "value": 4, "unit": "mg/dL"}]}, {"compound": "CC(C)CCC(O)[C@@H](C)[C@H]1CC[C@H]2[C@@H]3CC=C4C[C@@H](O)CC[C@]4(C)[C@H]3CC[C@]12C", "note": "(stereo partly drawn)", "values": [{"measurement": "minimal effective dose", "setting": "[1]", "value": "> 30", "unit": "mg/kg"}]}]}
